Results reported in patent US20160297830A1, “NOVEL COMPOUNDS USEFUL FOR THE TREATMENT OF BACTERIAL INFECTIOUS DISEASES” (GALAPAGOS NV, priority 2013, published 2016).
Converted amounts (≈) assume the structure as drawn. Read-outs that look alike come from different tables or passages of the source.

Tests used:
S. aureus Sa1 ATCC 13709 = experiment: microbe, parasite or virus in culture; assay type: cell-based; settings: Staphylococcus aureus, ATCC13709; S. aureus Sa1 ATCC 13709, sensitive strain; Mueller-Hinton Broth, 37° C.; read-out: MIC Sa1
[1] = tested on: S. aureus Sa26 ATCC 25923; experiment: Antibacterial activity assay (MIC), S. aureus Sa26; assay type: cell-based; settings: Staphylococcus aureus
S. aureus Sa4 NCTC 6571 = experiment: Antibacterial activity assay (MIC), S. aureus Sa4; assay type: cell-based; settings: Staphylococcus aureus, NCTC6571; S. aureus Sa4 NCTC 6571, sensitive strain; read-out: MIC Sa4
[2] = tested on: S. aureus Sa2 clinical strain NCIMB 41953, MRSA; experiment: microbe, parasite or virus in culture; assay type: cell-based; settings: Staphylococcus aureus, read-out: MIC Sa2
[3] = tested on: H. influenza Hi3 ATCC 31517; experiment: organism not typed; assay type: cell-based; settings: read-out: MIC Hi3
[4] = tested on: H. influenza Hi10 clinical strain; experiment: organism not typed; assay type: cell-based; settings: read-out: MIC Hi10
[5] = tested on: H. influenza Hi47 clinical strain, Ampicillin Resistant; experiment: organism not typed; assay type: cell-based; settings: read-out: MIC Hi47
[6] = tested on: H. influenza Hi106 ATCC 51907; experiment: organism not typed; assay type: cell-based; settings: read-out: MIC Hi106
E. coli Ec1 ATCC 25922 = experiment: Antibacterial activity assay (MIC), E. coli Ec1; assay type: cell-based; settings: Escherichia coli, ATCC25922; E. coli Ec1 ATCC 25922, sensitive strain; read-out: MIC Ec1
[7] = tested on: E. coli Ec50 efflux pump KO; experiment: microbe, parasite or virus in culture; assay type: cell-based; settings: Escherichia coli, read-out: MIC Ec50 efflux pump KO
[8] = tested on: E. coli Ec113 efflux pump KO; experiment: microbe, parasite or virus in culture; assay type: cell-based; settings: Escherichia coli, read-out: MIC Ec113 efflux pump KO
[9] = target: DNA Polymerase IIIα (DnaE) from Staphylococcus aureus (Staphylococcus aureus, UniProt Q6GG04); experiment: biochemical
Chain of DNA Polymerase IIIα (DnaE) from Staphylococcus aureus (Q6GG04 1-1022): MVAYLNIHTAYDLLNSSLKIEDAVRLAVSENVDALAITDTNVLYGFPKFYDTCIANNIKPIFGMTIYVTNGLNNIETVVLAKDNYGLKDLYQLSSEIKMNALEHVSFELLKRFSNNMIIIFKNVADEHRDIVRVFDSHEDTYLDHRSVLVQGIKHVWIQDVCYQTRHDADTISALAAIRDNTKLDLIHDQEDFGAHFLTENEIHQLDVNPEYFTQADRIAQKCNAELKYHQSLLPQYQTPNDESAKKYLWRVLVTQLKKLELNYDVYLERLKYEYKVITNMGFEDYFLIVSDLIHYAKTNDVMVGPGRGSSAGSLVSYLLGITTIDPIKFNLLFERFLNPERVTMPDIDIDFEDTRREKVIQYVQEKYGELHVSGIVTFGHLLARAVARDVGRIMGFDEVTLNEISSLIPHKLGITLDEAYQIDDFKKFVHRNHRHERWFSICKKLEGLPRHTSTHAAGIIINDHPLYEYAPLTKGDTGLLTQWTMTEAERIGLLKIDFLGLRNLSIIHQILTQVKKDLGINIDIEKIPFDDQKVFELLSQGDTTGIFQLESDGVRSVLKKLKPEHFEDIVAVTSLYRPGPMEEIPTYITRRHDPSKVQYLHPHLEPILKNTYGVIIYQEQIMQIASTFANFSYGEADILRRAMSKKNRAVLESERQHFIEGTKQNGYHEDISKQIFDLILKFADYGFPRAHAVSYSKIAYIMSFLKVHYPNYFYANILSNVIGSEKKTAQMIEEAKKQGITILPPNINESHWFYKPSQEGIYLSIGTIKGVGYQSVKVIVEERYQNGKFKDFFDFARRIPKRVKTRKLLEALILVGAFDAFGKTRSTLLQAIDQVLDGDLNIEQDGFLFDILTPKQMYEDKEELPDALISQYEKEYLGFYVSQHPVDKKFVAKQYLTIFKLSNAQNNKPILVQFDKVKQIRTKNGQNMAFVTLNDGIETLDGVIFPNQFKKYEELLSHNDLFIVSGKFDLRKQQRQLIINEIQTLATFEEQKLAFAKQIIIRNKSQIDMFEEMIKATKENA

DNA III Polymerase E = DNA III Polymerase E (Escherichia coli, UniProt P10443); experiment: In vitro activity against DNA III Polymerase E, E. coli; assay type: biochemical
Chain of DNA III Polymerase E (P10443 whole entry): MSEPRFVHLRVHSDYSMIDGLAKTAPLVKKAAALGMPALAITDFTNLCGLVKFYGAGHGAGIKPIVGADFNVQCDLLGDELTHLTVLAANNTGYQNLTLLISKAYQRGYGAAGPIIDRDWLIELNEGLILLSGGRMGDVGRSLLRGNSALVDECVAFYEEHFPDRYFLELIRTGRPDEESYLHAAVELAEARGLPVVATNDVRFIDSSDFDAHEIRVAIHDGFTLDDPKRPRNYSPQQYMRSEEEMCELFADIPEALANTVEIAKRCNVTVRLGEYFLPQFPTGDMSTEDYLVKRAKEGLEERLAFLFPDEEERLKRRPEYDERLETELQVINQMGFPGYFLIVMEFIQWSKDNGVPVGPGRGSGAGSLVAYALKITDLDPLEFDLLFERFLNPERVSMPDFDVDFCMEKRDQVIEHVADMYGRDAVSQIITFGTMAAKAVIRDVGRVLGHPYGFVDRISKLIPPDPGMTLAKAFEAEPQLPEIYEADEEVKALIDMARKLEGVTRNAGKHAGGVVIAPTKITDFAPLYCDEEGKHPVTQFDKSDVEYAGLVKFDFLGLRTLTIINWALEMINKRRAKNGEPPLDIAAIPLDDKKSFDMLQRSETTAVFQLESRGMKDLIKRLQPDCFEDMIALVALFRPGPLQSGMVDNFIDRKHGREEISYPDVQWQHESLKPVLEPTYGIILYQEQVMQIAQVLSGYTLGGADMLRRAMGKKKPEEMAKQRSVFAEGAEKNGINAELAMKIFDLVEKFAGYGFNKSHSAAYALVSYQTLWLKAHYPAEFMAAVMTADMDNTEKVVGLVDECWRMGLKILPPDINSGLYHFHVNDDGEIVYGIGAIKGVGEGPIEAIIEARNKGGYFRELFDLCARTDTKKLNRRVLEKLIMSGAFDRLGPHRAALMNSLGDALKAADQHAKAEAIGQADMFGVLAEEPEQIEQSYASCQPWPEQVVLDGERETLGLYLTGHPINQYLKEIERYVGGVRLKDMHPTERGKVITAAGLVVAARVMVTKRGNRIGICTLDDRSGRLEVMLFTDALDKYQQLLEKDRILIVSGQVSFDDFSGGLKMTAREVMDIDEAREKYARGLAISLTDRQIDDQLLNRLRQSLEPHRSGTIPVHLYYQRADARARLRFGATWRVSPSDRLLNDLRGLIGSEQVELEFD
Method: A radioactive filterplate assay was used to assess inhibitory activity of compounds on DNA Polymerase IIIα. Five μL of a dilution series of compound, starting from 100 μM highest concentration, 1/5 dilution, was added to the wells of a 96 well plate. Recombinant enzyme was diluted to 0.47 μg/mL in a buffer containing 20 mM Tris pH7.5, 8 mM DTT, 10 mM MgOAc, 0.05% CHAPS and 10 μL thereof was added to the compound dilutions. The reaction was started with the addition of 10 μL substrate in the same buffer, containing activated calf thymus DNA (Sigma, D4522), dATP, dGTP, dCTP, dTTP (Invitrogen) and [α-33P]-dTTP (Perkin Elmer, NEG605H001) at a concentration of 62.5 μg/mL, 50 nM and 7.5 μCi/mL respectively. The mixture was incubated at 30° C. for 120 minutes and terminated by addition of phosphoric acid. Samples were transferred to filter plates and incorporated radioactivity was measured by the Topcount. Data were converted to percent inhibition with respect to positive and negative controls. IC50 values were calculated using Graph Prism™ software.

[10] = ATCC25923, read-out: MIC Sa26 + 10% SH, S. aureus Sa26 + 10% SH
[11] = ATCC25923, read-out: MIC Sa26 + 50% SH, S. aureus Sa26 + 50% SH
[12] = ATCC25923, S. aureus Sa26 ATCC 25923, sensitive strain, Mueller-Hinton Broth, 37° C., read-out: MIC Sa26
[13] = DNA polymerase III, S. aureus, read-out: IC50 semiquantitative scoring, S. aureus
[14] = DNA polymerase III, E. coli, read-out: IC50 semiquantitative scoring, E. coli

Row | SMILES | MIC (S. aureus Sa1 ATCC 13709) [µg/mL] | MIC [1, 10] [µg/mL] | MIC [1, 11] [µg/mL] | MIC [1, 12] [µg/mL] | MIC (S. aureus Sa4 NCTC 6571) [µg/mL] | MIC [2] [µg/mL] | MIC [3] [µg/mL] | MIC [4] [µg/mL] | MIC [5] [µg/mL] | MIC [6] [µg/mL] | MIC (E. coli Ec1 ATCC 25922) [µg/mL] | MIC [7] [µg/mL] | MIC [8] [µg/mL] | IC50 [9] [µM] | IC50 (DNA III Polymerase E) [µM] | IC50 [9, 13] [µM] | IC50 (DNA III Polymerase E; [14]) [µM]
1 | COC[C@@H](O)[C@H]1OC(=O)[C@H](COC)[C@H]2C=C[C@H]3[C@H]4O[C@]2(/C(C)=C/[C@H]1C)[C@@H]3[C@H](O)[C@@H](C)[C@H]4OC(=O)c1ccoc1 [Compound 7, 8-O-Furane-3′-carbonylbaleomycin] | 8 (≈ 14.6 µM) | 16 | 16 | 16 (≈ 29.3 µM) | 8 (≈ 14.6 µM) | 8 (≈ 14.6 µM) | > 64 | 64 (≈ 117 µM) | 64 (≈ 117 µM) | 64 (≈ 117 µM) | > 64 | > 64 | 0.125 (≈ 0.229 µM) | 0.00183 to 1.83 | 0.00183 to 1.83 | – | –
2 | COC[C@@H]1[C@@H](O)[C@@H]2[C@H]3C=C[C@@H]4[C@@H](COC)C(=O)O[C@H]([C@H](O)COC)[C@H](C)/C=C(\C)[C@@]24O[C@H]3[C@@H]1OC(=O)c1cocn1 [Compound 8, 8-O-Oxazole-4′-carbonylbranimycin] | > 64 | > 64 | > 64 | > 64 | > 64 | > 64 | > 64 | > 64 | > 64 | > 64 | > 64 | > 64 | 64 (≈ 111 µM) | – | – | 1.73 to 17.3 | > 17.3
3 | COC[C@@H]1[C@@H](O)[C@@H]2[C@H]3C=C[C@@H]4[C@@H](COC)C(=O)O[C@H]([C@H](O)COC)[C@H](C)/C=C(\C)[C@@]24O[C@H]3[C@@H]1OC(=O)c1ccsc1 [Compound 9, 8-O-Thiophene-3′-carbonylbranimycin] | 4 (≈ 6.75 µM) | 2 | 4 | 2 (≈ 3.37 µM) | 2 (≈ 3.37 µM) | 4 (≈ 6.75 µM) | > 64 | > 64 | > 64 | > 64 | > 64 | > 64 | 4 (≈ 6.75 µM) | – | – | 0.00169 to 1.69 | > 16.9
4 | COC[C@@H]1[C@@H](O)[C@@H]2[C@H]3C=C[C@@H]4[C@@H](COC)C(=O)O[C@H]([C@H](O)COC)[C@H](C)/C=C(\C)[C@@]24O[C@H]3[C@@H]1OC(=O)c1cc[nH]n1 [Compound 10, 8-O-1H-Pyrazole-3′-carbonylbranimycin] | 16 (≈ 27.7 µM) | 16 | 8 | 16 (≈ 27.7 µM) | 16 (≈ 27.7 µM) | 16 (≈ 27.7 µM) | > 64 | > 64 | > 64 | > 64 | > 64 | > 64 | 16 (≈ 27.7 µM) | 0.00173 to 1.73 | > 17.3 | – | –
5 | COC[C@@H]1[C@@H](O)[C@@H]2[C@H]3C=C[C@@H]4[C@@H](COC)C(=O)O[C@H]([C@H](O)COC)[C@H](C)/C=C(\C)[C@@]24O[C@H]3[C@@H]1OC(=O)c1ccoc1C [Compound 11, 8-O-2-Methylfurane-3′-carbonylbranimycin] | > 64 | > 64 | > 64 | > 64 | > 64 | > 64 | > 64 | > 64 | > 64 | > 64 | > 64 | > 64 | 8 (≈ 13.5 µM) | 1.69 to 16.9 | > 16.9 | – | –
